From patent publication US20250136576A1, “Heterocyclic Compounds and Uses Thereof” (ACEA Therapeutics, Inc., priority 2021, published 2025) come the findings set out here.

For this test, the system named is KM12-luc cells. As to the kind of experiment: Cell proliferation and growth inhibition assay (CCK-8) in KM12-luc. The class given is cell-based. As to conditions: KM12-luc cells, treated with test compounds for 72 hrs, CCK-8 viability, read-out: NTRK IC50 in KM12-luc. The method, boiled down:
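Cells were grown at 37 °C, 5% CO2 with 10% FBS: MV-4-11 in IMDM, H1975 in RPMI 1640, KM12-luc in DMEM. Viability was read by CCK-8 (1-4 hrs reagent incubation, absorbance at OD450). IC50 came from a non-linear sigmoidal dose-response fit.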

SMILES strings stand for the structures. Where two headings read alike, the source gives them in different places. Bounds are passed on as bounds.

One may read the IC50 as the midpoint of a concentration-inhibition curve. Turning to `CC(=O)Nc1cc(Nc2ncc(Cl)c(-c3c[nH]c4ccccc34)n2)cc(F)c1N(C)CCN(C)C` [Compound 441, N-(5-((5-chloro-4-(1H-indol-3-yl)pyrimidin-2-yl)amino)-2-((2-(dimethylamino)ethyl)(methyl)amino)-3-fluorophenyl)acetamide], for the setting “KM12-Luc, 72 h”, the half-inhibitory concentration (IC50) was 24.9 nM.

For the compound `CCN(CCN(C)C)c1c(F)cc(Nc2ncc(Cl)c(-c3c[nH]c4ccccc34)n2)cc1NC(C)=O` [Compound 443, N-(5-((5-chloro-4-(1H-indol-3-yl)pyrimidin-2-yl)amino)-2-((2-(dimethylamino)ethyl) (ethyl)amino)-3-fluorophenyl)acetamide], the half-maximal inhibitory concentration (IC50) (KM12-Luc, 72 h) is 33.3 nM.

For the compound `CCN(C(=O)CN(C)C)c1ccc(Nc2ncc(Cl)c(-c3c[nH]c4ccccc34)n2)cc1N` [Compound 448, N-(2-amino-4-((5-chloro-4-(1H-indol-3-yl)pyrimidin-2-yl)amino)phenyl)-2-(dimethylamino)-N-ethylacetamide], where the note is “KM12-Luc, 72 h”, the 50% inhibitory concentration (IC50) was greater than 1000 nM.

With `CCN(C(=O)CN(C)C)c1ccc(Nc2ncc(Cl)c(-c3c[nH]c4ccccc34)n2)cc1NC(C)=O` [Compound 449, N-(2-acetamido-4-((5-chloro-4-(1H-indol-3-yl)pyrimidin-2-yl)amino)phenyl)-2-(dimethylamino)-N-ethylacetamide], where the note is “KM12-Luc, 72 h”, the half-inhibitory concentration (IC50) is greater than 1000 nM.

Take `CCN(C(=O)CCN(C)C)c1ccc(Nc2ncc(Cl)c(-c3c[nH]c4ccccc34)n2)cc1NC(C)=O` [Compound 451, N-(2-acetamido-4-((5-chloro-4-(1H-indol-3-yl)pyrimidin-2-yl)amino)phenyl)-3-(dimethylamino)-N-ethylpropanamide]: the IC50 (KM12-Luc, 72 h) amounted to 14.2 nM.

For the compound `CN1CCN(c2ccc(C(=O)Nc3c[nH]c4cnc(Nc5cc(F)cc(F)c5)nc34)c(NC3CCOCC3)c2)CC1` [Compound 491, N-(2-((3,5-difluorophenyl)amino)-5H-pyrrolo[3,2-d]pyrimidin-7-yl)-4-(4-methylpiperazin-1-yl)-2-((tetrahydro-2H-pyran-4-yl)amino)benzamide], for the setting “KM12-Luc, 72 h”, the IC50 was greater than 3330 nM.

Take `CN(C)CCN(C)c1ccc(C(=O)Nc2c[nH]c3cnc(Nc4cc(F)cc(F)c4)nc23)c(NC2CCOCC2)c1` [Compound 493, N-(2-((3,5-difluorophenyl)amino)-5H-pyrrolo[3,2-d]pyrimidin-7-yl)-4-((2-(dimethylamino)ethyl)(methyl)amino)-2-((tetrahydro-2H-pyran-4-yl)amino)benzamide]: under “KM12-Luc, 72 h”, the half-inhibitory concentration (IC50) was greater than 10000 nM.

In the case of `COCCCN(C)c1cc(N2CCN(C)CC2)ccc1C(=O)Nc1c[nH]c2cnc(Nc3cc(F)cc(F)c3)nc12` [Compound 494, N-(2-((3,5-difluorophenyl)amino)-5H-pyrrolo[3,2-d]pyrimidin-7-yl)-2-((3-methoxypropyl)(methyl)amino)-4-(4-methylpiperazin-1-yl)benzamide], the IC50 (KM12-Luc, 72 h) is greater than 1000 nM.

Consider `CN1CCN(c2ccc(C(=O)Nc3c[nH]c4ccc(Nc5cc(F)cc(F)c5)cc34)c(NC3CCOCC3)c2)CC1` [Compound 497, N-(5-((3,5-difluorophenyl)amino)-1H-indol-3-yl)-4-(4-methylpiperazin-1-yl)-2-((tetrahydro-2H-pyran-4-yl)amino)benzamide], for which the IC50 (KM12-Luc, 72 h) was 4030 nM.

With `CN(C)CCN(C)c1ccc(C(=O)Nc2c[nH]c3ccc(Nc4cc(F)cc(F)c4)cc23)c(NC2CCOCC2)c1` [Compound 500, N-(5-((3,5-difluorophenyl)amino)-1H-indol-3-yl)-4-((2-(dimethylamino)ethyl)(methyl)amino)-2-((tetrahydro-2H-pyran-4-yl)amino)benzamide], the IC50 (KM12-Luc, 72 h) turned out to be 3570 nM.

As to `COCCCN(C)c1cc(N2CCN(C)CC2)ccc1C(=O)Nc1c[nH]c2ccc(Nc3cc(F)cc(F)c3)cc12` [Compound 501, N-(5-((3,5-difluorophenyl)amino)-1H-indol-3-yl)-2-((3-methoxypropyl)(methyl)amino)-4-(4-methylpiperazin-1-yl)benzamide], the IC50 (KM12-Luc, 72 h) was greater than 1000 nM.

With `CN1CCN(c2ccc(C(=O)Nc3c[nH]c4cnc(Oc5cc(F)cc(F)c5)nc34)c(NC3CCOCC3)c2)CC1` [Compound 503, N-(2-(3,5-difluorophenoxy)-5H-pyrrolo[3,2-d]pyrimidin-7-yl)-4-(4-methylpiperazin-1-yl)-2-((tetrahydro-2H-pyran-4-yl)amino)benzamide], the IC50 (KM12-Luc, 72 h) was 3640 nM.

For `CN1CCN(c2ccc(C(=O)Nc3c[nH]c4ccc(Cc5cc(F)cc(F)c5)cc34)c(NC3CCOCC3)c2)CC1` [Compound 505, N-(5-(3,5-difluorobenzyl)-1H-indol-3-yl)-4-(4-methylpiperazin-1-yl)-2-((tetrahydro-2H-pyran-4-yl)amino)benzamide], the IC50 (KM12-Luc, 72 h) is greater than 1000 nM.

In the case of `CN(C)CCN(C)c1ccc(C(=O)Nc2c[nH]c3ccc(Cc4cc(F)cc(F)c4)cc23)c(NC2CCOCC2)c1` [Compound 507, N-(5-(3,5-difluorobenzyl)-1H-indol-3-yl)-4-(2-(dimethylamino)ethyl)(methylamino)-2-((tetrahydro-2H-pyran-4-yl)amino) benzamide], for the setting “KM12-Luc, 72 h”, the half-maximal inhibitory concentration (IC50) is greater than 1000 nM.

Turning to `COCCCN(C)c1cc(N2CCN(C)CC2)ccc1C(=O)Nc1c[nH]c2ccc(Cc3cc(F)cc(F)c3)cc12` [Compound 508, N-(5-(3,5-difluorobenzyl)-1H-indol-3-yl)-2-((3-methoxypropyl)(methyl)amino)-4-(4-methylpiperazin-1-yl)benzamide], for the setting “KM12-Luc, 72 h”, the concentration for half-maximal inhibition (IC50) was greater than 1000 nM.

Regarding `COc1cnc(Nc2ccc(N3CC[C@@H](N(C)C)C3)c(NC(C)=O)c2)nc1-c1c[nH]c2c(F)cccc12` [Compound R-280, (R)—N-(2-(3-(dimethylamino)pyrrolidin-1-yl)-5-((4-(7-fluoro-1H-indol-3-yl)-5-methoxypyrimidin-2-yl)amino)phenyl)acetamide], the 50% inhibitory concentration (IC50) (KM12-Luc, 72 h) was found to be 15.6 nM.

`COc1cnc(Nc2ccc(N3CC[C@@H](N(C)C)C3)c(NC(C)=O)c2)nc1-c1cn(C)c2c(F)cccc12` [Compound R-281, (R)—N-(2-(3-(dimethylamino)pyrrolidin-1-yl)-5-((4-(7-fluoro-1-methyl-1H-indol-3-yl)-5-methoxypyrimidin-2-yl)amino)phenyl)acetamide]: for the setting “KM12-Luc, 72 h”, the half-inhibitory concentration (IC50) is 121 nM.

Take `COc1cnc(Nc2ccc(N3CC[C@@H](N(C)C)C3)c(NC(C)=O)c2)nc1-c1c[nH]c2c(OC)cccc12` [Compound R-288, (R)—N-(2-(3-(dimethylamino)pyrrolidin-1-yl)-5-((5-methoxy-4-(7-methoxy-1H-indol-3-yl)pyrimidin-2-yl)amino)phenyl)acetamide]: the IC50 (KM12-Luc, 72 h) came to 15.5 nM.

Take `CN(C)[C@@H]1CCN(c2ccc(Nc3ncc(C(F)(F)F)c(-c4c[nH]c5c(F)cccc45)n3)cc2N)C1` [Compound R-345, (R)-4-(3-(dimethylamino)pyrrolidin-1-yl)-N^1-(4-(7-fluoro-1H-indol-3-yl)-5-(trifluoromethyl)pyrimidin-2-yl)benzene-1,3-diamine]: where the note is “KM12-Luc, 72 h”, the IC50 came out at 6.2 nM.

`CC(=O)Nc1cc(Nc2ncc(C(F)(F)F)c(-c3cn(C)c4c(F)cccc34)n2)ccc1N1CC[C@@H](N(C)C)C1` [Compound R-353, (R)—N-(2-(3-(dimethylamino)pyrrolidin-1-yl)-5-((4-(7-fluoro-1-methyl-1H-indol-3-yl)-5-(trifluoromethyl)pyrimidin-2-yl)amino)phenyl)acetamide]: the IC50 (KM12-Luc, 72 h) stood at 64.3 nM.

`CN(C)[C@@H]1CCN(c2ccc(Nc3ncc(C(F)(F)F)c(-c4cn(C)c5c(F)cccc45)n3)cc2N)C1` [Compound R-354, (R)-4-(3-(dimethylamino)pyrrolidin-1-yl)-N^1-(4-(7-fluoro-1-methyl-1H-indol-3-yl)-5-(trifluoromethyl)pyrimidin-2-yl)benzene-1,3-diamine]: the IC50 (KM12-Luc, 72 h) stood at 69.1 nM.

Regarding `Cc1cccc2c(-c3nc(Nc4ccc(N5CC[C@@H](N(C)C)C5)c(N)c4)ncc3C(F)(F)F)c[nH]c12` [Compound R-367, (R)-4-(3-(dimethylamino)pyrrolidin-1-yl)-N^1-(4-(7-methyl-1H-indol-3-yl)-5-(trifluoromethyl)pyrimidin-2-yl)benzene-1,3-diamine], the half-maximal inhibitory concentration (IC50) (KM12-Luc, 72 h) was determined as 5.7 nM.

As to `COc1cccc2c(-c3nc(Nc4ccc(N5CC[C@@H](N(C)C)C5)c(N)c4)ncc3Cl)cn(C)c12` [Compound R-414, (R)—N^1-(5-chloro-4-(7-methoxy-1-methyl-1H-indol-3-yl)pyrimidin-2-yl)-4-(3-(dimethylamino)pyrrolidin-1-yl)benzene-1,3-diamine], the IC50 stood at 12.4 nM.

As to `CC(=O)Nc1cc(Nc2ncc(Cl)c(-c3cn(C)c4c(F)cccc34)n2)ccc1N1CC[C@@H](N(C)C)C1` [Compound R-415, (R)—N-(5-((5-chloro-4-(7-fluoro-1-methyl-1H-indol-3-yl)pyrimidin-2-yl)amino)-2-(3-(dimethylamino)pyrrolidin-1-yl)phenyl)acetamide], the half-inhibitory concentration (IC50) (KM12-Luc, 72 h) turned out to be 66.7 nM.

With `COc1cccc2c(-c3nc(Nc4ccc(N5CC[C@@H](N(C)C)C5)c(N)c4)ncc3Cl)cn(C)c12` [Compound R-420, (R)—N^1-(5-chloro-4-(7-methoxy-1-methyl-1H-indol-3-yl)pyrimidin-2-yl)-4-(3-(dimethylamino)pyrrolidin-1-yl)benzene-1,3-diamine], the 50% inhibitory concentration (IC50) worked out at 72 nM.

As for `Cc1cccc2c(-c3nc(Nc4ccc(N5CC[C@@H](N(C)C)C5)c(N)c4)ncc3Cl)c[nH]c12` [Compound R-425, (R)—N^1-(5-chloro-4-(7-methyl-1H-indol-3-yl)pyrimidin-2-yl)-4-(3-(dimethylamino)pyrrolidin-1-yl)benzene-1,3-diamine], where the note is “KM12-Luc, 72 h”, the concentration for half-maximal inhibition (IC50) stood at 11.3 nM.

In the case of `Cc1cccc2c(-c3nc(Nc4ccc(N5CC[C@@H](N(C)C)C5)c(N)c4)ncc3Cl)cn(C)c12` [Compound R-431, (R)—N^1-(5-chloro-4-(1,7-dimethyl-1H-indol-3-yl)pyrimidin-2-yl)-4-(3-(dimethylamino)pyrrolidin-1-yl)benzene-1,3-diamine], the IC50 (KM12-Luc, 72 h) was found to be 31.8 nM.
